From patent publication US11725000B2, “Apoptosis inhibitors” (National Institute of Biological Sciences, Beijing, priority 2017, dated 2023)

What follows are compounds tested on U2OS_Bim cells (assay: Apoptosis inhibition assay (Bim-induced apoptosis, cell viability by ATP level)). Details: U2OS_Bim cells; means of duplicates; numbering of Tables 4a/4b; read-out: EC50.
Assay type: cell-based
Experimental: A chemical library containing 200000 compounds was screened according to the following procedure: U2OS_Bim cells (a cell line in which the BH3-only protein Bim can be inducibly expressed by the addition of Doxycycline to the growth medium)^[2] were plated in 384-well plates with 30 μl medium at a density of 500 cells per well. 16 hrs after plating, test compounds were transferred from stock plates to the assay plates with the cultured cells. Positive control (20 μM zVAD) and negative control (DMSO) were added to every plate. 1 hr after compound treatment, 0.1 ug/mL Doxycyclin (DOX) was added to induce the expression of the Bim protein. After 24 hrs, cell viability was determined by measuring the ATP levels using a Cell Titer-Glo kit (Promega, G7570) according to the manufacturer's instructions. Luminescence was recorded with a PerkinElmer EnSpire Multimode Plate Reader. Compounds that could rescue cell viability to a level above 50% were selected; these compounds were then screened a second time for assurance.
U2OS_Bim or U2OS_tBid cells were plated at a density of 3000 cells per well in 96-well plates. 24 hrs later, cells were treated with experimental compounds, zVAD (positive control) and DMSO (Negative control) for one hour. The cells were then treated with 0.1 μg/mL DOX to trigger apoptosis. 24 hours after the addition of DOX, cell viability was determined by measuring the ATP levels using a Cell Titer-Glo kit. Cell survival rate was calculated.
U2OS_Bim cells (a U2OS stable cell line transfected with a Bim transgene) were cultured in DMEM culture medium (Gibico). On day one, U2OS_Bim cells were plated in 96-well plates at a density of 3000 cells per well. On day two, cells were pretreated with compounds for one hour. Then cells were treated with 0.1 μg/mL doxycycline (DOX) to trigger apoptosis. 24 hours after DOX treatment, cell viability was determined by measuring the ATP levels using the Cell Titer-Glo kit (G7570, Promega), according to the manufacturer's instructions. Luminescence was recorded with a PerkinElmer EnSpire Multimode Plate Reader. Survived cells were normalized to those cells treated with DMSO. zVAD (20 μM) was used as a positive control. Activity data for compounds […] are represented as means f standard deviation of duplicates; activity data for compounds 187-274 are estimated based on preliminary results.

| Structure (SMILES) | EC50 |
| --- | --- |
| C[S+]([O-])c1nc(-c2cccc3ccccc23)cc(C(F)(F)F)n1 (centres unmarked) [Compound 77, 2-(methylsulfinyl)-4-(naphthalen-1-yl)-6-(trifluoromethyl)pyrimidine] | < 100 µM |
| COc1ncccc1-c1cc(C(F)(F)F)nc(S(C)(=O)=O)n1 [Compound 78, 4-(2-methoxypyridin-3-yl)-2-(methylsulfonyl)-6-(trifluoromethyl)pyrimidine] | < 100 µM |
| COc1ncccc1-c1cc(C(F)(F)F)nc([S+](C)[O-])n1 (centres unmarked) [Compound 79, 4-(2-Methoxypyridin-3-yl)-2-(methylsulfinyl)-6-(trifluoromethyl)pyrimidine] | < 100 µM |
| CS(=O)(=O)c1nc(-c2ccc[nH]c2=O)cc(C(F)(F)F)n1 [Compound 80, 3-(2-(methylsulfonyl)-6-(trifluoromethyl)pyrimidin-4-yl)pyridin-2 (1H)-one] | < 100 µM |
| C[S+]([O-])c1nc(-c2ccc[nH]c2=O)cc(C(F)(F)F)n1 (centres unmarked) [Compound 81, 3-(2-(methylsulfinyl)-6-(trifluoromethyl)pyrimidin-4-yl)pyridin-2 (1H)-one] | < 100 µM |
| C[S+]([O-])c1nc(N2CCOCC2)cc(C(F)(F)F)n1 (centres unmarked) [Compound 82, 4-(2-(methylsulfinyl)-6-(trifluoromethyl)pyrimidin-4-yl)morpholine] | < 100 µM |
| CS(=O)(=O)c1nc(-n2cccn2)cc(C(F)(F)F)n1 [Compound 83, 2-(methylsulfonyl)-4-(1H-pyrazol-1-yl)-6-(trifluoromethyl)pyrimidine] | 1 to 10 µM |
| CS(=O)(=O)c1nc(-c2ccc[nH]2)cc(C(F)(F)F)n1 [Compound 84, 2-(methylsulfonyl)-4-(1H-pyrrol-2-yl)-6-(trifluoromethyl)pyrimidine] | 1 to 10 µM |
| COc1ccc(Cn2cccc2-c2cc(C(F)(F)F)nc(S(C)(=O)=O)n2)cc1OC [Compound 85, 4-(1-(3,4-dimethoxybenzyl)-1H-pyrrol-2-yl)-2-(methylsulfonyl)-6-(trifluoromethyl)pyrimidine] | 1 to 10 µM |
| COc1ccc(Cn2cccc2-c2cc(C(F)(F)F)nc([S+](C)[O-])n2)cc1OC (centres unmarked) [Compound 86, 4-(1-(3,4-dimethoxybenzyl)-1H-pyrrol-2-yl)-2-(methylsulfinyl)-6-(trifluoromethyl)pyrimidine] | < 100 µM |
| CS(=O)(=O)c1nc(-c2cc[nH]c2)cc(C(F)(F)F)n1 [Compound 87, 2-(methylsulfonyl)-4-(1H-pyrrol-3-yl)-6-(trifluoromethyl)pyrimidine] | < 100 µM |

The remaining lines, values ahead:

| EC50 | Structure (SMILES) |
| --- | --- |
| < 100 µM | C[S+]([O-])c1nc(-c2cc[nH]c2)cc(C(F)(F)F)n1 (centres unmarked) [Compound 88, 2-(methylsulfinyl)-4-(1H-pyrrol-3-yl)-6-(trifluoromethyl)pyrimidine] |
| < 100 µM | COc1cccc(Cn2ccc(-c3cc(C(F)(F)F)nc(S(C)(=O)=O)n3)c2)c1 [Compound 89, 4-(1-(3-methoxybenzyl)-1H-pyrrol-3-yl)-2-(methylsulfonyl)-6-(trifluoromethyl)pyrimidine] |
| < 100 µM | COc1cccc(Cn2ccc(-c3cc(C(F)(F)F)nc([S+](C)[O-])n3)c2)c1 (centres unmarked) [Compound 90, 4-(1-(3-methoxybenzyl)-1H-pyrrol-3-yl)-2-(methylsulfinyl)-6-(trifluoromethyl)pyrimidine] |
| < 100 µM | COc1ccc(Cn2ccc(-c3cc(C(F)(F)F)nc(S(C)(=O)=O)n3)c2)cc1 [Compound 91, 4-(1-(4-methoxybenzyl)-1H-pyrrol-3-yl)-2-(methylsulfonyl)-6-(trifluoromethyl)pyrimidine] |
| < 100 µM | COc1ccc(Cn2ccc(-c3cc(C(F)(F)F)nc([S+](C)[O-])n3)c2)cc1 (centres unmarked) [Compound 92, 4-(1-(4-methoxybenzyl)-1H-pyrrol-3-yl)-2-(methylsulfinyl)-6-(trifluoromethyl)pyrimidine] |
| < 100 µM | CS(=O)(=O)c1nc(-c2ccn(Cc3cccc(Cl)c3)c2)cc(C(F)(F)F)n1 [Compound 93, 4-(1-(3-chlorobenzyl)-1H-pyrrol-3-yl)-2-(methylsulfonyl)-6-(trifluoromethyl)pyrimidine] |
